Test results reported in patent publication US20110275518A1 (priority 2007, published 2011).
“Also recorded” adds a separate entry of the source.

How the values were obtained:
[1] = prior art teaching; cited from earlier work
[2] = system: dry bean (Phaseolus vulgaris L) seeds, cultivar 'Othello'; test: Germination of diseased dry bean seed under bacterial disease pressure (Experiment 1); type: in vivo
Description: The precipitate is recovered by filtration and the powder is dried.
Seeds were placed on blotters in Petri plates, were soaked in an excess of water for 3 days, then drained on day 4. The 3-day period of excess water created extremely high pressure from pathogenic and saprophytic bacteria. This led to a very high bacterial load on the germinating seeds and high disease pressure due to pathogenic, saprophytic and soft-rot bacteria. This disease pressure was so extreme that the germination rates for experiments 2-5 were essentially zero due to being overwhelmed by the disease pressure.

healthy dry bean seed = test: Germination of healthy dry bean seed; type: in vivo
pulse seeds = settings: 0.1% to 1% aqueous coating; pea, chickpea, lentil, soybean
Description: Germination on blotters was scored at 7- and 14-days. Emergence from soil was scored at 21- and 28-days.
To treat seeds, one hundred seeds were placed in a 50-mL Falcon tube and combined with the treatment solution. Seeds were mixed with the treatment for 5-min by gently rolling and inverting the Falcon tube. Coated seeds were placed in an open Petri plate for 30-min to dry. Seeds were sown 10-per pot, set in a greenhouse, and maintained under standard conditions with mercury lamp lighting supplementing daylight from 3:00 pm to 10:00 pm.
Place 100-seeds into a 50-mL Falcon tube and add 1-mL of treatment solution. Gently roll and invert the tube for 5 min to evenly coat each seed without causing damage. Remove seeds from tube by pouring carefully into an empty Petri plate. Leave exposed (lid off) and air dry seeds for 30 min.
(1) Germination: Place 50 seeds from each treatment onto 25 individual moistened blotters in large Petri plates. Incubate at room temperature for 2-weeks with or without light. Score germination at 7- and 14-days. (2) Emergence: Sow 50 seeds from each treatment into five pots (10-seeds per pot and five pots per treatment). Place in a greenhouse at 22° C. with ample air circulation. Use mercury lamps to supplement lighting (on at 3:00 pm-off at 10:00 pm) if necessary. For pre-emergent plants, water pots as needed to keep soil moist but not wet. Water emergent plants daily. […]

O=[N+]([O-])[O-].[Ag+] [silver nitrate]
phytotoxicity [1]: phytotoxic

oxysilver nitrate [high valency silver]
phytotoxicity / effect on germination of dry bean seeds ([2]; 0.1% to 1% treatments, days needed to reach 25% germination): no negative effects on germination; also recorded: no phytotoxic effect on germinating seeds | increase in germination compared with the negative control (sterile water) ([2]; 1% treatment, by day 10): 34.7% | Day to 50% germination (healthy dry bean seed; 1%): 5.0 days | Day to 50% germination (healthy dry bean seed; […]): 5.0 days | effect on germination of pulse seeds (pulse seeds): no negative effects on germination of any pulse seed
